By IC50 is commonly meant the point on the concentration scale where inhibition reaches its midpoint.

Where two headings read alike, the source gives them in different places.

One assay addresses Cathepsin D (Cat D) (Homo sapiens (Human), UniProt P07339). Briefly: In vitro enzymatic Cathepsin D (Cat D) FRET assay. The assay is classed as biochemical. As to conditions: read-out: CatD IC50. Put shortly:
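CHO-expressed recombinant Cat D cleaves a fluorophore/quencher FRET peptide (20 nM) in 0.05 M citrate pH 3.5, 5 mM CHAPS, 10% DMSO final, over 1 h. Tris addition neutralizes pH to stop the reaction; fluorescence read at excitation 500 nm, emission 580 nm.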

In assay [1] the test system is Aβ40 in conditioned medium of cells stably expressing Amyloid Precursor Protein (APP). The assay is described as follows: In vitro BACE cell-based assay (Aβ40 sandwich ELISA). To be noted: Homo sapiens. The protocol:
In Vitro BACE Cell-Based Assay
The cell-based assay measures inhibition or reduction of Aβ40 in conditioned medium of test compound treated cells expressing amyloid precursor protein.
Cells stably expressing Amyloid Precursor Protein (APP) were plated at a density of 40K cells/well in 96 well plates (Costar). The cells were cultivated for 24 hours at 37° C. and 5% CO2 in DMEM supplemented with 10% FBS. The test compounds were then added to cells in 10-point dose response concentrations with the starting concentration being either 100 μM or 10 μM. The compounds were diluted from stock solutions in DMSO and the final DMSO concentration of the test compounds on cells was 0.1%. After 24 h of incubation with the test compounds the supernatant conditioned media was collected and the Aβ 40 levels were determined using a sandwich ELISA. The IC50 of the compound was calculated from the percent of control or percent inhibition of Aβ 40 as a function of the concentration of the test compound.
The sandwich ELISA to detect Aβ 40 was performed in 96 well microtiter plates, which were pre-treated with goat anti-rabbit IgG (Pierce). The capture and detecting antibody pair that were used to detect Aβ 40 from cell supernatants were affinity purified pAb40 (Biosource) and biotinylated 6E10 (Signet Labs Inc.), respectively. The optimal concentration for the pAb40 antibody was 3 μg/ml in Superblock/TBS (Pierce) that was supplemented with 0.05% Tween 20 (Sigma).
Cellular supernatants were incubated with the capture antibody for 3 h at 4° C., followed by 3 wash steps in TBS-tween (0.05%). The detecting antibody incubation was for 2 h at 4° C., again followed by the wash steps as described previously. The final readout of the ELISA is Time-Resolved Fluorescence (counts per minute) using Delfia reagents Streptavidin-Europium and Enhancement solutions (Perkin Elmer) and the Victor 2 multilabel counter (Perkin Elmer).
Background: ELISA stands for enzyme-linked immunosorbent assay.

In assay [2] the target is Beta Secretase enzyme (BACE) (Homo sapiens (Human), UniProt P56817). Briefly: In vitro enzymatic BACE FRET assay. The assay is classed as biochemical. To be noted: read-out: BACE 1 FRET assay IC50. The protocol:
In Vitro Enzymatic BACE FRET (Fluorescence Resonance Energy Transfer) Assay (Enzyme Assay Data in the Example Table I)
The assay buffer used in this screen is 0.05 M acetate, pH 4.2, 10% DMSO final, 100 uM genapol (which is a nonionic detergent, below its Critical Micelle Concentration). […] This assay is effectively started by the addition of FRET substrate (50 nM) and the combination is incubated for one hour. The FRET assay is terminated with by addition of Tris buffer, which raises the pH to neutrality, and the fluorescence is determined. The FRET substrate is a peptide with commercially available fluorophore and quencher, on opposite sides of the BACE cleavage site.

The mark [3] stands for this setting: HEK293, average IC50, HEK cells, read-out: HEK cell assay IC50.
The mark [4] stands for this setting: HEK293, read-out: HEK cell assay IC50.
[5] abbreviates: average IC50, cathepsin D enzyme assay.
Setting [6] is: HEK293, average IC50, HEK cell assay, read-out: HEK cell assay IC50.
Where [7] appears, read: average IC50, BACE enzyme assay.

Cathepsin D (Cat D), sequence (P07339 65-412, species assumed): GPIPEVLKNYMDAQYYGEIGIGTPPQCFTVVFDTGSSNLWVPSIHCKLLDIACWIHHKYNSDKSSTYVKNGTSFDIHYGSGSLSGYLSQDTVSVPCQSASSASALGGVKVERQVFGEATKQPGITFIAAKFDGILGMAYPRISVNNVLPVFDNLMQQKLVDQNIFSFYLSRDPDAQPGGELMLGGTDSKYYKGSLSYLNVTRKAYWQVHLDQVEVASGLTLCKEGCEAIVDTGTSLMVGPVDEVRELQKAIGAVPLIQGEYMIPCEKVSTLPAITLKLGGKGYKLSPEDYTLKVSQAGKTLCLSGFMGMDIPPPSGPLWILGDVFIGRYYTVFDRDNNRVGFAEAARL
Beta Secretase enzyme (BACE), sequence (P56817 46-501): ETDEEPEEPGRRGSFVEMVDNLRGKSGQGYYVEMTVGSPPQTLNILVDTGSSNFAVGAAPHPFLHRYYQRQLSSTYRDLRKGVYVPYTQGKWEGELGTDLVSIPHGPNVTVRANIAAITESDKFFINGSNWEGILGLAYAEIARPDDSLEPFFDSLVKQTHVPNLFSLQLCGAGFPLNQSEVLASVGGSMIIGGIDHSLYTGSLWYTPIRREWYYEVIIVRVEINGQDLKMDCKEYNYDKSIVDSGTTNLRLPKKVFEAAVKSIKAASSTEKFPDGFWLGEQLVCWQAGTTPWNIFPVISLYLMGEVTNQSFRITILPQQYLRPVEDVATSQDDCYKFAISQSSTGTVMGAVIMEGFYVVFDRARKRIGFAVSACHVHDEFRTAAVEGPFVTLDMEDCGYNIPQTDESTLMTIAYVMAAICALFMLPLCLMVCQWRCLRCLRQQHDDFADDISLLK

As for `COc1cnc2c(Nc3ccc(F)c([C@]4(CF)C[C@@H](C(F)(F)F)OC(N)=N4)c3)nccc2n1` (racemic) [Example 9, (4S,6S)-4-(2-fluoro-5-((2-methoxypyrido[3,4-b]pyrazin-5-yl)amino)phenyl)-4-(fluoromethyl)-6-(trifluoromethyl)-5,6-dihydro-4H-1,3-oxazin-2-amine], the figures for the IC50 (on Cathepsin D (Cat D) (average IC50); in assay [1] (setting [3]); in assay [2] (average IC50)) were above 400 µM, 0.372 µM and 0.05 µM, respectively.
As for `Cc1cc(Cl)cnc1C(=O)Nc1ccc(F)c([C@]2(CF)C[C@@H](C(F)(F)F)OC(N)=N2)c1` [Example 4, N-(3-((4S,6S)-2-amino-4-(fluoromethyl)-6-(trifluoromethyl)-5,6-dihydro-4H-1,3-oxazin-4-yl)-4-fluorophenyl)-5-chloro-3-methylpicolinamide], the IC50 at Cathepsin D (Cat D) (average IC50) was above 400 µM; in assay [1] (setting [4]), 0.031 µM; in assay [2] (average IC50) it was 0.008 µM.
Turning to `NC1=N[C@](CF)(c2cc(NC(=O)c3ccc(OCC(F)(F)F)cn3)ccc2F)C[C@@H](C(F)(F)F)O1` [Example 5, N-(3-((4S,6S)-2-amino-4-(fluoromethyl)-6-(trifluoromethyl)-5,6-dihydro-4H-1,3-oxazin-4-yl)-4-fluorophenyl)-5-(2,2,2-trifluoroethoxy)picolinamide], the 50% inhibitory concentration (IC50) on Cathepsin D (Cat D) (average IC50) is above 400 µM; in assay [1] (setting [3]) it was 0.263 µM; in assay [2] (average IC50), 0.043 µM.
With `Cc1c(C(=O)Nc2ccc(F)c([C@]3(CF)C[C@@H](C(F)(F)F)OC(N)=N3)c2)nc2ccc(Cl)cn12` [Example 6, N-(3-((4S,6S)-2-amino-4-(fluoromethyl)-6-(trifluoromethyl)-5,6-dihydro-4H-1,3-oxazin-4-yl)-4-fluorophenyl)-6-chloro-3-methylimidazo[1,2-a]pyridine-2-carboxamide], the IC50 on Cathepsin D (Cat D) (average IC50) is above 400 µM; in assay [1] (setting [3]) it was 0.0522 µM; in assay [2] (average IC50), 0.036 µM.
In the same order, the values of `Cc1c(C(=O)Nc2ccc(F)c([C@]3(CF)C[C@@H](C(F)(F)F)OC(N)=N3)c2)nc2ccccn12` [Example 7, N-(3-((4S,6S)-2-amino-4-(fluoromethyl)-6-(trifluoromethyl)-5,6-dihydro-4H-1,3-oxazin-4-yl)-4-fluorophenyl)-3-methylimidazo[1,2-a]pyridine-2-carboxamide] are above 400 µM, 0.888 µM and 1.52 µM.
For `NC1=N[C@](CF)(c2cc(Nc3nccc4cc(Cl)cnc34)ccc2F)C[C@@H](C(F)(F)F)O1` [Example 8, (4S,6S)-4-(5-((3-chloro-1,7-naphthyridin-8-yl)amino)-2-fluorophenyl)-4-(fluoromethyl)-6-(trifluoromethyl)-5,6-dihydro-4H-1,3-oxazin-2-amine] the same measures were above 400 µM, 0.203 µM and 0.018 µM.
With `NC1=N[C@](CF)(c2cc(Nc3ncccc3F)ccc2F)C[C@@H](C(F)(F)F)O1` [Example 14, (4S,6S)-4-(2-fluoro-5-((3-fluoropyridin-2-yl)-amino)phenyl)-4-(fluoromethyl)-6-(trifluoromethyl)-5,6-dihydro-4H-1,3-oxazin-2-amine], the concentration for half-maximal inhibition (IC50) on Cathepsin D (Cat D) (setting [5]) was found to be 879 µM; in assay [1] (setting [6]), 0.758 µM; in assay [2] (setting [7]) it was 0.574 µM.
With `NC1=N[C@](CF)(c2cc(Nc3ccnc(Br)c3)ccc2F)C[C@@H](C(F)(F)F)O1` [Example 17, (4S,6S)-4-(5-((2-bromopyridin-4-yl)amino)-2-fluorophenyl)-4-(fluoromethyl)-6-(trifluoromethyl)-5,6-dihydro-4H-1,3-oxazin-2-amine], the values for the IC50 (at Cathepsin D (Cat D) (setting [5]); in assay [1] (setting [6]); in assay [2] (setting [7])) were 469 µM, 4.34 µM and 6.49 µM, respectively.
In the same order, the values of `NC1=N[C@](CF)(c2cc(Nc3nccc4nc(C(F)(F)F)cnc34)ccc2F)C[C@@H](C(F)(F)F)O1` [Example 18, (4S,6S)-4-(2-fluoro-5-((2-(trifluoromethyl)pyrido[3,4-b]pyrazin-5-yl)amino)phenyl)-4-(fluoromethyl)-6-(trifluoromethyl)-5,6-dihydro-4H-1,3-oxazin-2-amine] are above 14.8 µM, 0.336 µM and 0.118 µM.
Consider `NC1=N[C@](CF)(c2cc(Nc3nccc4cn(C(F)F)nc34)ccc2F)C[C@@H](C(F)(F)F)O1` [Example 20, (4S,6S)-4-(5-((2-(difluoromethyl)-2H-pyrazolo[3,4-c]pyridin-7-yl)amino)-2-fluorophenyl)-4-(fluoromethyl)-6-(trifluoromethyl)-5,6-dihydro-4H-1,3-oxazin-2-amine 2,2,2-trifluoroacetate], for which the IC50 was above 400 µM at Cathepsin D (Cat D) (setting [5]), 10.6 µM in assay [1] (setting [4]) and 33 µM in assay [2] (setting [7]).
Turning to `N#Cc1cnc2c(Nc3ccc(F)c([C@]4(CF)C[C@@H](C(F)(F)F)OC(N)=N4)c3)nccc2c1` [Example 22, 8-((3-((4S,6S)-2-amino-4-(fluoromethyl)-6-(trifluoromethyl)-5,6-dihydro-4H-1,3-oxazin-4-yl)-4-fluorophenyl)amino)-1,7-naphthyridine-3-carbonitrile], the 50% inhibitory concentration (IC50) on Cathepsin D (Cat D) (average IC50) was above 133 µM; in assay [1] (setting [3]) it was 0.057 µM; in assay [2] (average IC50) it was 0.021 µM.
Regarding `N#Cc1cnc2c(Nc3ccc(F)c([C@]4(CF)C[C@@H](C(F)(F)F)OC(N)=N4)c3)ncnc2c1` [Example 23, 4-((3-((4S,6S)-2-amino-4-(fluoromethyl)-6-(trifluoromethyl)-5,6-dihydro-4H-1,3-oxazin-4-yl)-4-fluorophenyl)amino)pyrido[3,2-d]pyrimidine-7-carbonitrile], in assay [1] (setting [3]), the half-maximal inhibitory concentration (IC50) turned out to be 0.192 µM.
Regarding `N#Cc1cc(Nc2ccc(F)c([C@]3(CF)C[C@@H](C(F)(F)F)OC(N)=N3)c2)ccn1` [Example 24, 4-((3-((4S,6S)-2-amino-4-(fluoromethyl)-6-(trifluoromethyl)-5,6-dihydro-4H-1,3-oxazin-4-yl)-4-fluorophenyl)amino)picolinonitrile], the values for the half-inhibitory concentration (IC50) (at Cathepsin D (Cat D) (setting [5]); in assay [1] (setting [6]); in assay [2] (setting [7])) were 1760 µM, 7 µM and 19 µM, respectively.
For the molecule `COc1cnc(C(=O)Nc2ccc(F)c([C@]3(C)C[C@@H](C(F)(F)F)OC(N)=N3)c2)cn1` [Example 27, N-(3-((4S,6S)-2-amino-4-methyl-6-(trifluoromethyl)-5,6-dihydro-4H-1,3-oxazin-4-yl)-4-fluorophenyl)-5-methoxypyrazine-2-carboxamide], the IC50 at Cathepsin D (Cat D) (average IC50) is above 400 µM; in assay [2] (average IC50), 0.03 µM.
As for `NC1=N[C@](CF)(c2cc(Oc3cc(-c4ccccc4)ccn3)ccc2F)C[C@@H](C(F)(F)F)O1` [Example 102, (4S,6S)-4-(2-fluoro-5-((4-phenylpyridin-2-yl)oxy)phenyl)-4-(fluoromethyl)-6-(trifluoromethyl)-5,6-dihydro-4H-1,3-oxazin-2-amine], the 50% inhibitory concentration (IC50) at Cathepsin D (Cat D) (average IC50) came out at 114 µM; in assay [1] (setting [4]), 2.82 µM.
For the molecule `NC1=N[C@](CF)(c2cc(NC(=O)c3ncc(Cl)cc3F)cc(F)c2F)C[C@@H](C(F)(F)F)O1` [Example 233, N-(3-((4S,6S)-2-amino-4-(fluoromethyl)-6-(trifluoromethyl)-5,6-dihydro-4H-1,3-oxazin-4-yl)-4,5-difluorophenyl)-5-chloro-3-fluoropicolinamide], at Cathepsin D (Cat D) (average), the 50% inhibitory concentration (IC50) is above 400 µM.
Same read-out and setting: as for `C[C@@]1(c2cc(NC(=O)c3ccc(Cl)cn3)cc(F)c2Cl)C[C@@H](C(F)(F)F)OC(N)=N1` [Example 236, N-(3-((4S,6S)-2-amino-4-methyl-6-(trifluoromethyl)-5,6-dihydro-4H-1,3-oxazin-4-yl)-4-chloro-5-fluorophenyl)-5-chloropicolinamide], the figure is 408 µM; as for `COc1cnc(C(=O)Nc2cc(F)c(Cl)c([C@]3(C)C[C@@H](C(F)(F)F)OC(N)=N3)c2)cn1` [Example 237, N-(3-((4S,6S)-2-amino-4-methyl-6-(trifluoromethyl)-5,6-dihydro-4H-1,3-oxazin-4-yl)-4-chloro-5-fluorophenyl)-5-methoxypyrazine-2-carboxamide], 194 µM.

These data come from patent publication US9296734B2 (AMGEN INC., priority 2013, dated 2016).
